Patent US4513001A, “β-Adrenergic 1-[1-benzimidazolyl]-N-[2-(4-hydroxy-3-methoxy-phenyl)-2-hydroxy-ethyl]- 3-amino butane and salts and hydrates thereof” (priority 1982, dated 1985)
Read-outs that look alike come from different tables or passages of the source.

Legend:
heart rate [1] = experiment: β-stimulant specificity: heart rate of the anesthetised dog, antagonism of compound A tachycardia by acebutolol; assay type: in vivo
Source text: The results below are the averages of the values obtained in 3 dogs.

[2] = Acute toxicity in the mouse, intravenous; conditions: in vivo
Source text: These two compounds were the subject of an acute toxicity study in the mouse.
The two compounds had similar toxicity and the pharmacological study was able, indifferently, to be carried out with one or the other, the results being, in the two cases, expressed by weight of base per kg of body weight for the in vivo tests and in molar concentration for the in vitro tests.

heart rate [3] = experiment: Heart rate of the un-anesthetised dog, oral; assay type: in vivo, Beagle dog
[4] = T1 + 1 min after acebutolol 0.5 mg/kg i.v., following compound A perfusion
[5] = T1 + 5 min after acebutolol 0.5 mg/kg i.v.
[6] = T1 + 15 min after acebutolol 0.5 mg/kg i.v.
[7] = T1 + 30 min (printed T i) after acebutolol 0.5 mg/kg i.v.
[8] = T1 + 1 h after acebutolol 0.5 mg/kg i.v.
[9] = T1 + 4 h after acebutolol 0.5 mg/kg i.v.

Compound: CCCC(=O)Nc1ccc(OCC(O)CNC(C)C)c(C(C)=O)c1 (centres unmarked) [Acebutolol, reference compound]
- Heart rate (heart rate [1]; [4]): 162 beats/min
- Heart rate variation (heart rate [1]; [4]): +5
- Heart rate (heart rate [1]; [5]): 156 beats/min
- Heart rate variation (heart rate [1]; [5]): -1
- Heart rate (heart rate [1]; [6]): 149 beats/min
- Heart rate variation (heart rate [1]; [6]): -8
- Heart rate (heart rate [1]; [7]): 147 beats/min
- Heart rate variation (heart rate [1]; [7]): -10
- Heart rate (heart rate [1]; [8]): 154 beats/min
- Heart rate variation (heart rate [1]; [8]): -3
- Heart rate (heart rate [1]; [9]): 143 beats/min
- Heart rate variation (heart rate [1]; [9]): -14
- Antagonism of the tachycardia caused by compound A (heart rate [1]; acebutolol 0.5 mg/kg i.v., compound A perfused 6 min at 4.2 μg/kg/min): completely antagonises the tachycardia caused by compound A

Compound: COc1cc(C(O)CNC(C)CCn2cnc3ccccc32)ccc1O.Cl.Cl.O.O (centres unmarked) [Compound B, 1-[1-benzimidazolyl]-N-[2-(4-hydroxy-3-methoxy-phenyl)-2-hydroxy-ethyl]-3-amino-butane dihydrochloride, dihydrate]
- LD50 ([2]; as base, confidence limits printed, read-out: LD50 expressed as base): 106 mg/kg
- LD50 ([2]; by weight of product, confidence limits p=0.05 printed, read-out: LD50): 148 mg/kg
- Heart rate, average (heart rate [3]; 22 μg base/kg, 15 min, time 0: 94, 12 dogs): 130
- Heart rate, average (heart rate [3]; 22 μg base/kg, 30 min, time 0: 94): 129
- Heart rate, average (heart rate [3]; 22 μg base/kg, 1 h, time 0: 94): 129
- Heart rate, average (heart rate [3]; 22 μg base/kg, 2 h, time 0: 94): 119
- Heart rate, average (heart rate [3]; 22 μg base/kg, 3 h, time 0: 94): 109
- Heart rate, average (heart rate [3]; 22 μg base/kg, 4 h, time 0: 94): 104
- Heart rate, average (heart rate [3]; 22 μg base/kg, 5 h, time 0: 94): 102
- Heart rate, average (heart rate [3]; 72 μg base/kg, 15 min, time 0: 90, 12 dogs): 147
- Heart rate, average (heart rate [3]; 72 μg base/kg, 30 min, time 0: 90): 162
- Heart rate, average (heart rate [3]; 72 μg base/kg, 1 h, time 0: 90): 162
- Heart rate, average (heart rate [3]; 72 μg base/kg, 2 h, time 0: 90): 160
- Heart rate, average (heart rate [3]; 72 μg base/kg, 3 h, time 0: 90): 146
- Heart rate, average (heart rate [3]; 72 μg base/kg, 4 h, time 0: 90): 132
- Heart rate, average (heart rate [3]; 72 μg base/kg, 5 h, time 0: 90): 125
- Heart rate, average (heart rate [3]; 72 μg base/kg, 6 h, time 0: 90): 115
- Heart rate, average (heart rate [3]; 72 μg base/kg, 7 h, time 0: 90): 112
- Tachycardiac activity (comparison with Salbutamol) (heart rate [3]; un-anesthetised dog, in words): distinctly less tachycardiac than Salbutamol
